For eleven molecules, TGI and GI50 results are on record in PubChem BioAssay (NCI).

Each structure is given as a SMILES string. Values joined by “and” are separate entries in the source; they are usually repeats but may differ in a detail not shown here. Identical values can stand only once.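 48-hour exposure; five concentrations; linearly interpolated endpoints. GI50 is the concentration that inhibits growth by half. TGI marks complete inhibition of growth.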

Test systems include 786-0 renal; A549 NSCLC; BT-549 breast; DU-145 prostate; HS 578T breast; IGROV1 ovarian; OVCAR-5 ovarian; RXF 393 renal; SF-539 CNS; SK-MEL-2 melanoma; SK-MEL-5 melanoma; UACC-257 melanoma.
Common to all, as to assay: NCI anticancer screen, dose series, 48 h

Turning to `CC(=O)O[C@H]1C[C@]2(C)C(CCC3O[C@@]32C)[C@@]2(CC(c3ccoc3)OC2O)[C@@H]1C` (some centres not stated), the TGI in the assay on 786-0 renal, in the assay on A549 NSCLC, in the assay on BT-549 breast, with DU-145 prostate, with HS 578T breast and with IGROV1 ovarian was > 100 µM each time. The TGI with OVCAR-5 ovarian, with RXF 393 renal, in the assay on SF-539 CNS, in the assay with SK-MEL-2 melanoma, with SK-MEL-5 melanoma and with UACC-257 melanoma was > 100 µM each time.
Regarding `COc1cc(N=NN(C)C)c(C(C)c2c3cc(OC)c(OC)cc3cc[n+]2C)cc1OC` (configuration not stated), the TGI with 786-0 renal, in the assay on A549 NSCLC, in the assay with BT-549 breast, in the assay on DU-145 prostate, with HS 578T breast and in the assay on IGROV1 ovarian was > 100 µM each time. Further, the TGI with OVCAR-5 ovarian is > 100 µM; in the assay on RXF 393 renal, > 100 µM; with SF-539 CNS, 47.3 µM; with SK-MEL-2 melanoma, 87.5 µM; in the assay on SK-MEL-5 melanoma, 56.8 µM; in the assay on UACC-257 melanoma, > 100 µM.
For the molecule `O=C1CCCc2c1c1c(n2Cc2ccccc2)-c2ccccc2C1=O`, the TGI in the assay with 786-0 renal is 66.5 µM; in the assay on A549 NSCLC it was 88.2 µM; with BT-549 breast, 55.7 µM; with DU-145 prostate it was > 100 µM; with HS 578T breast, 77.3 µM; in the assay on IGROV1 ovarian, 72.1 µM. For the same molecule, the TGI was > 100 µM in the assay on OVCAR-5 ovarian; > 100 µM with RXF 393 renal; 48.6 µM in the assay with SF-539 CNS; 43 µM in the assay with SK-MEL-2 melanoma; 40.7 µM in the assay with SK-MEL-5 melanoma; 32.1 µM in the assay with UACC-257 melanoma.
For `CC[C@@]1(O)C(=O)OCc2c1cc1n(c2=O)Cc2c-1nc1ccccc1c2CC[Si](C)(C)C`, the TGI in the assay on 786-0 renal is < 0.0266 µM; in the assay on A549 NSCLC, 7.61 µM; in the assay on BT-549 breast, > 100 µM; in the assay with DU-145 prostate it was > 100 µM; in the assay on HS 578T breast it was > 100 µM; with IGROV1 ovarian it was > 100 µM. For the same molecule, the TGI was 6.59 µM in the assay with OVCAR-5 ovarian; 0.371 µM in the assay with RXF 393 renal; 3.32 µM in the assay on SF-539 CNS; 0.484 µM in the assay with SK-MEL-2 melanoma; < 0.0425 µM with SK-MEL-5 melanoma.
Take `OCCN(CCO)c1ccc2c(C(F)(F)F)cc(C(F)(F)F)nc2n1`: the TGI in the assay with 786-0 renal, in the assay with A549 NSCLC, in the assay with BT-549 breast, in the assay with DU-145 prostate, with HS 578T breast and with IGROV1 ovarian was > 100 µM in each case. In addition, the TGI with OVCAR-5 ovarian, in the assay with RXF 393 renal, in the assay on SF-539 CNS, in the assay with SK-MEL-2 melanoma, in the assay with SK-MEL-5 melanoma and with UACC-257 melanoma was > 100 µM throughout.
As to `COc1cc([C@@H]2c3cc4c(cc3[C@@H](NCCNCCO)[C@H]3COC(=O)[C@H]23)OCO4)cc(OC)c1O`, the TGI in the assay with 786-0 renal was 3.02 µM and 3.48 µM; in the assay with A549 NSCLC, > 100 µM; in the assay with BT-549 breast, 7.03 µM and 5.49 µM; with DU-145 prostate it was 9.83 µM and > 33.9 µM; in the assay on HS 578T breast, 19.2 µM and 5.4 µM; with IGROV1 ovarian it was 20.2 µM and 12 µM. Besides, the TGI in the assay on OVCAR-5 ovarian is 51.2 µM and 25.5 µM; in the assay with RXF 393 renal it was 8.18 µM and 4.94 µM; in the assay with SF-539 CNS, 3.13 µM and 1.04 µM; in the assay on SK-MEL-2 melanoma it was > 26.9 µM and 4.89 µM; in the assay with SK-MEL-5 melanoma, 5.14 µM and 6.05 µM; with UACC-257 melanoma it was > 30.5 µM and 39.9 µM. In addition, the GI50 was 1.82 µM and 3.88 µM in the assay on DU-145 prostate; 14 µM and 5.18 µM in the assay with OVCAR-5 ovarian; 0.702 µM and 0.171 µM in the assay with SF-539 CNS.
In the case of `O=C(O)CSc1cc(-c2ccccc2)nc2ccccc12`, the TGI was > 100 µM in the assay on 786-0 renal; > 100 µM with A549 NSCLC; > 100 µM in the assay with BT-549 breast; > 100 µM in the assay on DU-145 prostate; 61.4 µM in the assay with HS 578T breast; > 100 µM in the assay with IGROV1 ovarian. The TGI in the assay on OVCAR-5 ovarian is > 100 µM; in the assay on RXF 393 renal it was 94.8 µM; in the assay on SK-MEL-2 melanoma, > 100 µM; with SK-MEL-5 melanoma it was > 100 µM; in the assay on UACC-257 melanoma, > 100 µM.
Consider `Cc1cc(N(CCC#N)CCC#N)ccc1/C(N=Nc1cccc([N+](=O)[O-])c1)=N/NC(=O)c1cc(Cl)ccc1O`, for which the TGI in the assay with 786-0 renal was > 100 µM; with A549 NSCLC, > 100 µM; in the assay on BT-549 breast, 92.7 µM; with DU-145 prostate it was > 100 µM; in the assay with HS 578T breast, > 100 µM; in the assay with IGROV1 ovarian, 32.8 µM. In addition, the TGI in the assay with OVCAR-5 ovarian was > 100 µM; in the assay with RXF 393 renal, 72.2 µM; with SF-539 CNS it was > 100 µM; in the assay on SK-MEL-2 melanoma, 63.3 µM; in the assay on SK-MEL-5 melanoma, 39.3 µM; in the assay on UACC-257 melanoma it was 94.1 µM.
Regarding `O=C(Cn1nc(Br)c(Br)c1Br)c1ccccc1`, the TGI is 77.4 µM in the assay with 786-0 renal; 89.7 µM with A549 NSCLC; 80.4 µM in the assay on BT-549 breast; > 100 µM in the assay on DU-145 prostate; > 100 µM in the assay with HS 578T breast; > 100 µM in the assay with IGROV1 ovarian. Also, the TGI in the assay on OVCAR-5 ovarian was > 100 µM; in the assay with RXF 393 renal, 36.4 µM; with SF-539 CNS, 45.1 µM; in the assay with SK-MEL-2 melanoma, 56.7 µM; in the assay on SK-MEL-5 melanoma, 34.5 µM; with UACC-257 melanoma, 63.5 µM.
As to `O=C1NC2(CCCCC2)N=C2C(Cl)CCCC12Cl` (configuration not stated), the TGI in the assay on 786-0 renal, in the assay with A549 NSCLC, in the assay with BT-549 breast, with DU-145 prostate, in the assay on HS 578T breast and in the assay with IGROV1 ovarian was > 100 µM in each case. Also, the TGI in the assay on OVCAR-5 ovarian, with RXF 393 renal, with SF-539 CNS, in the assay on SK-MEL-2 melanoma and in the assay with SK-MEL-5 melanoma was > 100 µM each time.
Consider `CC(C)C(C/C=C1/CC(CO)(COC(=O)CC(C(C)C)C(C)C)OC1=O)C(C)C` (configuration not stated), for which the TGI with 786-0 renal is 23.3 µM; in the assay on A549 NSCLC it was 14.6 µM; in the assay with BT-549 breast it was 28.7 µM; in the assay on DU-145 prostate it was 26.3 µM; in the assay on HS 578T breast, 2.29 µM; in the assay with IGROV1 ovarian, 31.1 µM. The TGI in the assay with OVCAR-5 ovarian was determined as 22.1 µM; in the assay on RXF 393 renal, 26 µM; in the assay on SF-539 CNS it was 23.8 µM; in the assay on SK-MEL-2 melanoma, 30.1 µM; in the assay with SK-MEL-5 melanoma, 22.3 µM; with UACC-257 melanoma, 30.3 µM.
